Measured values reported in US9645138B2, “Method to evaluate the tissue targeting of a molecule of interest” (IMABIOTECH, priority 2013, dated 2017).
Where two headings read alike, the source gives them in different places.

What was measured:
[1] = test system: receptor in the brain (GABA); assay: Receptor occupancy / adsorption by MALDI imaging of rat brain sections, Diazepam dosed and Lorazepam washing (Example 2)
Text: FIG. 7 explains the methodology of adsorption of a molecule on tissue using the example of the receptor occupancy process. In this way, it is possible to measure the occupancy efficiency of the receptor by the drug (agonist) administered to the animal compared with an antagonist molecule. In this example, all the steps of the methodology are described: the dosed tissue analysis alone, the washing step with the antagonist solution of the control tissue and the combined dosed/washing analysis of the administrated sample. No negative marker is required for this kind of experiment.
Of course, in an almost identical manner an imaging device other that MALDI can be used, such as the following: SIMS, DESI, DIOS, ICP, MALDI microscope, SNOM, SMALDI, LA-ICP, ESI (liquid extraction on tissue), MILDI, JEDI, ELDI, etc.
Wild-type rats weighing 35-40 g were used. […] Animals (dosed and control rats) were sacrificed by CO2 asphyxiation. […] Finally, brains were stored at −80° C.
Brains (control and dosed tissues) were sectioned into 10 μm thick layers (coronal section) using a Microm HM560 (Thermo Scientific, France) cooled at −20° C.
The antagonist solution was prepared from a stock solution of Lorazepam at 1 mg/ml in methanol (100%). The final concentration of the washing solution was fixed at 100 pmol/μL in methanol/water+0.1% TFA (7:3). The concentration of the antagonist is a crucial factor for receptor occupancy that improves the binding capacity of the molecule. 20 μL of the solution was spotted on the tissue section (one dosed and one control sample) and then incubated for 1 hour at 37° C. in a box inside an INCU-Line incubator (VWR, France). A dosed brain section without washing was also put in the incubator.
After incubation, tissues were washed using 2 steps to remove unbound molecules from the tissue, firstly with a solution of methanol/water+0.1% TFA (7:3) corresponding to the antagonist washing solution. Secondly, the tissue is washed using only water solution (10 mL) and then placed into a desiccator for 15 min.
A DHB matrix was used for the analysis of all brain tissue sections with or without washing with the Lorazepam solution. This matrix was prepared at a concentration of 40 mg/ml in methanol/water+0.1% TFA (1:1, v/v).
The data was generated in positive reflectron mode.
The F2 factor allows comparison of the fine localization of the agonist and the antagonist in the white matter region and gives information about their similarity or dissimilarity.

[2] = MALDI mass spectrometry imaging of mouse kidney sections after oral co-administration (Example 1)
Experimental: (§1) The target tissue, hereinafter “tissue 1”, comprises the medulla and renal calices.
(§2) The non-target adjacent tissue, hereinafter “tissue 2”, is also considered and comprises the renal cortex region.
(§3) Wild-type mice of Swiss strain weighing 25-40 g from Charles River Laboratories were used. […] Mice were sacrificed by CO2 asphyxiation. Kidneys were then removed and plunged into 100% isopentane solution cooled by liquid nitrogen for rapid freezing. Finally, kidneys were stored at −80° C.
(§4) Kidneys were sectioned into 10 μm thick layers (sagittal sections) using a Microm HM560 (Thermo Scientific, France) cooled at −21° C. The sections were then deposited on conductive ITO (indium tin oxide) slides (Delta Technology, USA). Finally, the sections were kept in the cryostat chamber 30 min for cryodrying and then placed in a desiccator for 30 minutes.
(§5) A CHCA matrix was used for the analysis of all kidney tissue sections. This matrix was prepared at a concentration of 10 mg/ml in acetonitrile/water+0.1% TFA (6:1, v/v). The matrix solution was deposited using the SunCollect spraying system (SunChrom, Germany) following optimized protocol.
(§6) The images were obtained using an AutoFlex Speed MALDI-TOF mass spectrometer (Bruker Daltonics, Bremen, Germany) equipped with a Smartbeam II laser. The data was generated in positive reflectron mode. A total of 500 spectra were obtained for each spot with a 1000 Hz laser frequency and a 200×200 μm^2 image spatial resolution on a mass range of 100 to 1000 Da. The FlexImaging version 4.0 software was used to reconstruct the images and Quantinetix 1.6 software (ImaBiotech, Loos, France) permitted the extraction of spectral intensities of ions corresponding to each studied molecule.
(§7) The imaging data treatment software Quantinetix is used to extract relative intensities of each ion of interest and control compound for each position (or voxel) within each drawn region.
(§8) The next step is to normalize the whole dataset in order to compare them. The highest intensity related to each ion is used to normalize the intensities per position. One calculates mean normalized intensities for each ion and tissue type.
(§9) By definition, one considers that positive control compound factor F1 is equal to 100% whereas negative control compound factor F1 is equal to 0%.
(§10) F2 factor calculation is performed using normalized intensity values from the previous F1 factor evaluation. Position per position, one assesses the standard deviations of intensity values of the molecule of interest and the negative control with positive control one at the level of the target tissue (T1).
(§11) By definition, the positive control compound's factor F2 is considered equal to 100% whereas the negative control compound's factor F2 is equal to 0%.

[3] = Swiss, mouse, in vivo
Experimental: as §1, §2, §3, §4, §5, §6, §7, §8, §9, §10, §11

[4] = rat brain targeted area T1, positive marker Lorazepam = 100%
[5] = mouse kidney target tissue T1, positive control 100% and negative control 0% by definition

## O=C1Nc2ccc(Cl)cc2C(c2ccccc2Cl)=NC1O (centres unmarked) [Lorazepam]
[1]; control tissue section washed with the Lorazepam solution (100 pmol/μL, 1 hour at 37° C.)
  localization on the brain section (MSI): especially in the white matter
[1]; [4]
  F1 (%): 100%
  F2 (%): 100%
[1]; rat brain, targeted area T1 (white matter, receptor binding site), Diazepam 15 mg/kg i.v., Lorazepam washing 100 pmol/μL
  Normalized mean intensity/Tissue T1: 0.821
[1]; rat brain, untargeted area T2 (rest of the brain), Diazepam 15 mg/kg i.v., Lorazepam washing 100 pmol/μL
  Normalized mean intensity/Tissue T2: 0.21
[1]; target area (Receptor) T1, rat brain
  % Tar (targeting coefficient): 100%

## Cc1cc2c(s1)Nc1ccccc1N=C2N1CCN(C)CC1 [Olanzapine]
[2]; mouse kidney target tissue T1
  % Tg (global targeting coefficient): 40%
[2]; [5]
  F1 (%): 52.2%
[2]; mouse kidney, oral 8 mg/kg
  distribution in the kidney section (MS image, FIG. 6): mainly localized in the right half section of the medulla
[2]; mouse kidney, summary of Example 1
  affinity / targeting behavior for the medulla region: mean affinity

## CN1C(=O)CC(C)(c2ccccc2)C1=O (centres unmarked) [Methsuximide]
[3]
  % Tg (global targeting coefficient): 0%
  F1 (%): 0%
  F2 (%): 0%
[3]; po, 8 mg/kg
  Mean normalized intensity per tissue T1: 0.062
  Mean normalized intensity per tissue T2: 0.241

## CC[C@@H]([C@H](C)O)n1ncn(-c2ccc(N3CCN(c4ccc(OC[C@@H]5CO[C@@](Cn6cncn6)(c6ccc(F)cc6F)C5)cc4)CC3)cc2)c1=O [Posaconazole]
[2]; mouse kidney target tissue T1
  % Tg (global targeting coefficient): 100%
[2]; [5]
  F1 (%): 100%
  F2 (%): 100%
[2]; mouse kidney, non target tissue T2 (renal cortex), oral 8 mg/kg, MALDI imaging
  Mean normalized intensity per tissue T2: 0.055
[2]; mouse kidney, target tissue T1 (medulla), oral 8 mg/kg, MALDI imaging
  Mean normalized intensity per tissue T1: 0.281
